Values of other authors, collected in patent US20220305008A1, “TREATMENT OF CANCER HAVING GNAQ OR GNA11 GENETIC MUTATIONS WITH PROTEIN KINASE C INHIBITORS” (IDEAYA BIOSCIENCES, INC., priority 2019, published 2022).

Key:
[1] = in vivo, po
[2] = test system: metastatic uveal melanoma (MUM); details: patients with MUM (metastatic uveal melanoma)

CC1(N)CCN(c2cccnc2NC(=O)c2nc(-c3ncccc3C(F)(F)F)cnc2N)CC1 [IDE196]
safety and tolerability of dose [1]: safe and tolerable
anti-tumor activity [2]: preliminary anti-tumor activity
